Measurements published in ChEMBL document CHEMBL4312009, “Multigram scale synthesis of polycyclic lactones and evaluation of antitumor and other biological properties” (Eur J Med Chem, 2020).

How the values were obtained:
[1] = test system: GTPase KRas (Homo sapiens), P01116 [UNDEFINED MUTATION]; assay: Inhibition of KRas mutant in human DLD1 cells assessed as cell viability by measuring ATP at 2 uM relative to control; assay type: cell-based
[2] = test system: GTPase KRas (Homo sapiens), P01116 [UNDEFINED MUTATION]; assay: Inhibition of KRas mutant in human HCT116 cells assessed as cell viability by measuring ATP at 0.2 uM relative to control; assay type: cell-based
[3] = test system: GTPase KRas (Homo sapiens), P01116 [UNDEFINED MUTATION]; assay: Inhibition of KRas mutant in human SW480 cells assessed as cell viability by measuring ATP at 0.2 uM relative to control; assay type: cell-based
[4] = target: Sodium channel protein type 9 subunit alpha (Homo sapiens) (UniProt Q15858); assay: Inhibition of human Nav1.7 at 40 uM relative to control
[5] = test system: GTPase KRas (Homo sapiens), P01116 [UNDEFINED MUTATION]; assay: Inhibition of KRas mutant in human SW480 cells assessed as cell viability by measuring ATP at 20 uM relative to control; assay type: cell-based
[6] = test system: GTPase KRas (Homo sapiens), P01116 [UNDEFINED MUTATION]; assay: Inhibition of KRas mutant in human DLD1 cells assessed as cell viability by measuring ATP at 20 uM relative to control; assay type: cell-based
[7] = test system: GTPase KRas (Homo sapiens), P01116 [UNDEFINED MUTATION]; assay: Inhibition of KRas mutant in human HCT116 cells assessed as cell viability by measuring ATP at 2 uM relative to control; assay type: cell-based
[8] = test system: GTPase KRas (Homo sapiens), P01116 [UNDEFINED MUTATION]; assay: Inhibition of KRas mutant in human SW480 cells assessed as cell viability by measuring ATP at 2 uM relative to control; assay type: cell-based
[9] = test system: GTPase KRas (Homo sapiens), P01116 [UNDEFINED MUTATION]; assay: Inhibition of KRas mutant in human HCT116 cells […] assessed as cell viability by measuring ATP at 20 uM relative to control; assay type: cell-based
[10] = test system: GTPase KRas (Homo sapiens), P01116 [UNDEFINED MUTATION]; assay: Inhibition of KRas mutant in human HCT116 cells […] assessed as cell viability by measuring ATP at 2 uM relative to control; assay type: cell-based
[11] = test system: GTPase KRas (Homo sapiens), P01116 [UNDEFINED MUTATION]; assay: Inhibition of KRas mutant in human DLD1 cells assessed as cell viability by measuring ATP at 0.2 uM relative to control; assay type: cell-based
[12] = target: Microtubule-associated protein tau (Homo sapiens) (UniProt P10636); assay: Inhibition of human Tau at 40 uM relative to control
[13] = target: Apolipoprotein C-III (Homo sapiens) (UniProt P02656); assay: Inhibition of human APOC3 at 40 uM relative to control
[14] = target: T1, Angiopoietin-like protein 8 (Homo sapiens) (UniProt Q6UXH0); assay: Inhibition of human Angptl8 at 40 uM relative to control
T1 sequence (whole entry): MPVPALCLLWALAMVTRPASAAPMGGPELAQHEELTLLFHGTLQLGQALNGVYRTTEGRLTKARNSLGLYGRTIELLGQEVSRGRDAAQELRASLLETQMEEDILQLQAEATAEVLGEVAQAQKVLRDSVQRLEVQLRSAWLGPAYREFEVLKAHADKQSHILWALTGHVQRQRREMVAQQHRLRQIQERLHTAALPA

[15] = target: Proprotein convertase subtilisin/kexin type 9 (Homo sapiens) (UniProt Q8NBP7); assay: Inhibition of human PCSK9 at 40 uM relative to control
[16] = test system: GTPase KRas (Homo sapiens), P01116 [UNDEFINED MUTATION]; assay: Inhibition of KRas mutant in human HCT116 cells assessed as cell viability by measuring ATP at 20 uM relative to control; assay type: cell-based
[17] = test system: HeLa; assay: Cell cycle arrest in human HeLa cells assessed as effect on S phase incubated for 21 hrs by propidium iodide based flow cytometry; assay type: functional
[18] = test system: GTPase KRas (Homo sapiens), P01116 [UNDEFINED MUTATION]; assay: Inhibition of KRas mutant in human SW480 cells assessed as cell viability by measuring ATP; assay type: cell-based
[19] = test system: HeLa; assay: Cell cycle arrest in human HeLa cells incubated for 21 hrs by propidium iodide based flow cytometry; assay type: functional
[20] = Activation of wnt pathway in mouse C2C12 cells assessed as increase in alkaline phosphatase activity; assay type: cell-based
[21] = Activation of wnt pathway in mouse C2C12 cells assessed as increase in beta-catenin activity; assay type: cell-based
[22] = test system: GTPase KRas (Homo sapiens), P01116 [UNDEFINED MUTATION]; assay: Inhibition of KRas mutant in human HCT116 cells […] assessed as cell viability by measuring ATP at 0.2 uM relative to control; assay type: cell-based
[23] = test system: HeLa; assay: Cell cycle arrest in human HeLa cells assessed as effect on G1 phase incubated for 21 hrs by propidium iodide based flow cytometry; assay type: functional
[24] = test system: GTPase KRas (Homo sapiens), P01116 [UNDEFINED MUTATION]; assay: Inhibition of KRas mutant in human DLD1 cells assessed as cell viability by measuring ATP; assay type: cell-based
[25] = test system: HeLa; assay: Cell cycle arrest in human HeLa cells assessed as effect on 4N stage incubated for 21 hrs by propidium iodide based flow cytometry; assay type: functional
[26] = test system: GTPase KRas (Homo sapiens), P01116 [UNDEFINED MUTATION]; assay: Inhibition of KRas mutant in human HCT116 cells […] assessed as cell viability by measuring ATP; assay type: cell-based
[27] = test system: HeLa; assay: Cell cycle arrest in human HeLa cells assessed as effect on mitotic index incubated for 21 hrs by propidium iodide based flow cytometry; assay type: functional
[28] = test system: HeLa; assay: Cell cycle arrest in human HeLa cells assessed as effect on 2N stage incubated for 21 hrs by propidium iodide based flow cytometry; assay type: functional
[29] = test system: GTPase KRas (Homo sapiens), P01116 [UNDEFINED MUTATION]; assay: Inhibition of KRas mutant in human HCT116 cells assessed as cell viability by measuring ATP; assay type: cell-based
[30] = test system: HT-29; assay: Antiproliferative activity against human HT-29 cells assessed as reduction in cell viability incubated for 24 hrs by MTT assay; assay type: functional, cell-based; conditions: HT-29, 24 h
[31] = test system: HT-29; assay: Selectivity index, ratio of IC50 of antiproliferative activity against human HT-29 cells in normoxia to IC50 of antiproliferative activity against human HT-29 cells in hypoxia condition; assay type: functional
[32] = test system: HT-29; assay: Antiproliferative activity against human HT-29 cells assessed as reduction in cell viability incubated for 24 hrs in hypoxia condition by MTT assay; assay type: functional, cell-based; conditions: HT-29, 24 h
[33] = test system: CHO; assay: Cytotoxicity against CHO cells assessed as reduction in cell viability; assay type: cell-based; conditions: Cricetulus griseus
[34] = test system: CYP1A1; assay: Selectivity index, ratio of IC50 of cytotoxicity against CHO cells to IC50 for bioactivation in CYP1A1 (unknown origin) transfected CHO cells assessed as CYP1A1-mediated drug activation by measuring reduction in cell viability; assay type: cell-based; conditions: hamster, CHO cells and CYP1A1-transfected CHO cells; read-out: Ratio IC50

Sequence of Microtubule-associated protein tau (Homo sapiens) (P10636 whole entry): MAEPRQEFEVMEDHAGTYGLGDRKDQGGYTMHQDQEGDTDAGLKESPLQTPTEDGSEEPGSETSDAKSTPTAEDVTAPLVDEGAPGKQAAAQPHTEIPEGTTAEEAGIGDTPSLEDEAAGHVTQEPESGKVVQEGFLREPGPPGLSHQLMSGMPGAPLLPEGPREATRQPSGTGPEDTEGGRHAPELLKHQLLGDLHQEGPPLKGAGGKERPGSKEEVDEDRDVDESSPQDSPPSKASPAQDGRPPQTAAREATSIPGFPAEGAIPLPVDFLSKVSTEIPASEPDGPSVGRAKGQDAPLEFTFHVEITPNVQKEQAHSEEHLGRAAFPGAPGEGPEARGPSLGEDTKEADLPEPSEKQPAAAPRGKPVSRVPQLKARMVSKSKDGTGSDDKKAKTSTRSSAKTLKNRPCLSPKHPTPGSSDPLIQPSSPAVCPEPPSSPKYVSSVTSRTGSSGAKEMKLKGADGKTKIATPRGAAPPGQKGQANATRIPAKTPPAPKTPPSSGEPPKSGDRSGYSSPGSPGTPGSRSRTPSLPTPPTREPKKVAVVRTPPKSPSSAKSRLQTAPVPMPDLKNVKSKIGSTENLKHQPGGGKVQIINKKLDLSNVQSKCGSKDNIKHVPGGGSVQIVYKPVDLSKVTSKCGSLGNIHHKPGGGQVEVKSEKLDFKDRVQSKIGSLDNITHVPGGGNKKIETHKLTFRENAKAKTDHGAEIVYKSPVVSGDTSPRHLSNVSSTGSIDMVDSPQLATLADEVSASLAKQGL
Sequence of Proprotein convertase subtilisin/kexin type 9 (Homo sapiens) (Q8NBP7 31-152 limits assumed): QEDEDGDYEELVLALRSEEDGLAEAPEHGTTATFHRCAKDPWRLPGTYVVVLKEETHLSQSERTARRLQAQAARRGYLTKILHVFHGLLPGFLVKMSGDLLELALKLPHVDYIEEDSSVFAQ
Sequence of Proprotein convertase subtilisin/kexin type 9 (Homo sapiens) (Q8NBP7 153-692 limits assumed): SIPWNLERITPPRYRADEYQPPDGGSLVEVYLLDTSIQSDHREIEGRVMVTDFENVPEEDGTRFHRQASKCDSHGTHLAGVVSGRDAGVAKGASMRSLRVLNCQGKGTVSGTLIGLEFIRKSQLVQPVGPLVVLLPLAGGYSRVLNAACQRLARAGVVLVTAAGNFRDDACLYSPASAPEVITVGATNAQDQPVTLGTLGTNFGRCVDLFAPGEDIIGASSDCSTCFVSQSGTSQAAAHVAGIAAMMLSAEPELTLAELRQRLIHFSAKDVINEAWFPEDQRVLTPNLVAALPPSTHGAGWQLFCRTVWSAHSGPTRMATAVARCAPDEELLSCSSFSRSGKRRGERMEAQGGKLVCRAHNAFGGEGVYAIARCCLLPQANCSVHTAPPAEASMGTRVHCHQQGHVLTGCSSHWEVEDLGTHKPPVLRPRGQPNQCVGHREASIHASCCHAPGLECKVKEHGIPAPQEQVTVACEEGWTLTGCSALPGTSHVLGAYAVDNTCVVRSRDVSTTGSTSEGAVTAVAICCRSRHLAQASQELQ
Sequence of Sodium channel protein type 9 subunit alpha (Homo sapiens) (Q15858 whole entry, looked up): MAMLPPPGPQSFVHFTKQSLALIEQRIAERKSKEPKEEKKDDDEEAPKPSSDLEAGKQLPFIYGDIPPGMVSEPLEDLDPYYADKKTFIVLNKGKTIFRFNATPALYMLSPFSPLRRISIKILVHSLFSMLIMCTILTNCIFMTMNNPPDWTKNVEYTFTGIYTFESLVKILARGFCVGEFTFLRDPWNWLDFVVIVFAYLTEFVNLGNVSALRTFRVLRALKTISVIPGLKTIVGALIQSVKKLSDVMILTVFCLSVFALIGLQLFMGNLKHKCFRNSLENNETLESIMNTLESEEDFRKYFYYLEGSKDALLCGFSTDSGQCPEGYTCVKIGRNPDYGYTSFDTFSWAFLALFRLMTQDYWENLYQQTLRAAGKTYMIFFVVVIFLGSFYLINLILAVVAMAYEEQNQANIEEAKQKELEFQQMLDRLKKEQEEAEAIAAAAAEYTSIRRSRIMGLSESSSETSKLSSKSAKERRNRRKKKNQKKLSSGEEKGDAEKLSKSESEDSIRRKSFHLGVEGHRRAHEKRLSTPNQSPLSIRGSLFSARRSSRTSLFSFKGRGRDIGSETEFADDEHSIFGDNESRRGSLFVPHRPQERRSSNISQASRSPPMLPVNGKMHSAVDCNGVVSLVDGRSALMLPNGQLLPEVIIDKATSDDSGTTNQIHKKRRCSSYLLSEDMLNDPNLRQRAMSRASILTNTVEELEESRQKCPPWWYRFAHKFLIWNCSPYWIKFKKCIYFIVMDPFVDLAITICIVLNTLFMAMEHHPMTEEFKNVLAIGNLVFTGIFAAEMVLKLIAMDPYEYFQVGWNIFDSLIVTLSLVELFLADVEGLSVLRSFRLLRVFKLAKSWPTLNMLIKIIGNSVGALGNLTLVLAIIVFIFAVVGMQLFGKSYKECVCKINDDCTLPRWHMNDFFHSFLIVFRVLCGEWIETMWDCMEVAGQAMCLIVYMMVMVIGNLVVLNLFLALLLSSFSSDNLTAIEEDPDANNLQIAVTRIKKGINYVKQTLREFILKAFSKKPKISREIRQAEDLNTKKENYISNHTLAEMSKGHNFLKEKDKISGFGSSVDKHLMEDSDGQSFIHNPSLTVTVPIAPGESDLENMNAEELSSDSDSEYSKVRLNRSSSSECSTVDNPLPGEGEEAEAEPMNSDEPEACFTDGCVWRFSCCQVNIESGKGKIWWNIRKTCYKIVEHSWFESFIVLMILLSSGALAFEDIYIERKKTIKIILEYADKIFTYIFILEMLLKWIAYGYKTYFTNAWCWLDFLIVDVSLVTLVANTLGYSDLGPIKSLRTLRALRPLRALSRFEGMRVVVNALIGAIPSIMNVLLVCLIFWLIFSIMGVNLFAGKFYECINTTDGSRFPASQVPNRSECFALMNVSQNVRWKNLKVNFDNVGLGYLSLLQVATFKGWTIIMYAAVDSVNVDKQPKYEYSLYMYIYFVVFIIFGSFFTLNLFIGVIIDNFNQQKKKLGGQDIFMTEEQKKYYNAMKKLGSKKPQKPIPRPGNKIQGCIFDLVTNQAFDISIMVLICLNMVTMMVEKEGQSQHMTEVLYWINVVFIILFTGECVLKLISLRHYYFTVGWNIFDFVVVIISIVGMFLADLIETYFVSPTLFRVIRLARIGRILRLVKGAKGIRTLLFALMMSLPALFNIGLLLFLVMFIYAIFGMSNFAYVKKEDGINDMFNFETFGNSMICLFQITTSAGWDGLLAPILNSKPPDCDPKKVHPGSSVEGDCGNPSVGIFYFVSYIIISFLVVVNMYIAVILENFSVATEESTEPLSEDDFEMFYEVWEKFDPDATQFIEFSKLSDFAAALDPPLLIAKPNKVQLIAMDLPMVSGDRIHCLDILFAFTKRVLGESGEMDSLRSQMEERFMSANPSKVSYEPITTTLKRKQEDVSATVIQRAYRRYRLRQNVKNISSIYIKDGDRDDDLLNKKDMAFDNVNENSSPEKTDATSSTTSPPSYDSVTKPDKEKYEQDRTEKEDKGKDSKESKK
Sequence of Apolipoprotein C-III (Homo sapiens) (P02656 whole entry): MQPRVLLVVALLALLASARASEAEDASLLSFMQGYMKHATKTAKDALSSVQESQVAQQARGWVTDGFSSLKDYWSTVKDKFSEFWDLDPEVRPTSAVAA
Sequence of GTPase KRas (Homo sapiens), P01116 [UNDEFINED MUTATION] (P01116 whole entry, looked up, change not shown): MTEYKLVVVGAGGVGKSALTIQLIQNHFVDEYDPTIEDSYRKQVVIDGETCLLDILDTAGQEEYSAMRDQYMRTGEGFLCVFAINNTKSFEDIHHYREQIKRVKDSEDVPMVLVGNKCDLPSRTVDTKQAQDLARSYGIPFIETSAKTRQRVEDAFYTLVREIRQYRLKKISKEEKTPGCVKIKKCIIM

SMILES | inhibition [1] | inhibition [2] | inhibition [3] | inhibition [4] | inhibition [5] | inhibition [6] | inhibition [7] | inhibition [8] | inhibition [9] | inhibition [10] | inhibition [11] | inhibition [12] | inhibition [13] | inhibition [14] | inhibition [15] | inhibition [16] | IC50 [17] | EC50 [20] | inhibition [22] | EC50 [23] | further results
CCCCCCc1c2c(c(C)c3c1Oc1ccccc1O3)C(=O)SC2 | 6% | -10% | 10% | -2% | 21% | 14% | 2.9% | 10% | 3.4% | -5.6% | -10% | 30% | 7% | 27% | -4% | 13% |  |  |  |  | 
Cc1c2c(c(CCCCBr)c3c1Oc1ccccc1O3)C(=O)OC2 | 45% | 33% | 7% | 0% | 63% | 76% | 56% | 62% | 53% | 58% | 30% | 56% | 67% | 67% | 35% | 76% | > 10 µM | 8.2 µM | 15% | > 10 µM | inhibition [18]: Dose-dependent effect; IC50 [19]: 0.6 µM; EC50 [21]: > 20 µM; inhibition [24]: Dose-dependent effect; EC50 [25]: 1.4 µM; inhibition [26]: Dose-dependent effect; EC50 [27]: 1.3 µM; IC50 [28]: 1.5 µM; inhibition [29]: Dose-dependent effect
CCCCCc1c2c(c(C)c3c1C(=O)OC3)Oc1ccc(OC)cc1O2 | 16% |  | 15% | 22% | 19% | 73% | 7.9% | 16% | 6% | 8% |  | 60% | 38% | 59% | 42% | 40% | > 10 µM | > 10 µM | 52% | > 10 µM | EC50 [21]: > 10 µM; EC50 [25]: > 10 µM; EC50 [27]: > 10 µM; IC50 [28]: > 10 µM
CCCCCc1c2c(c(C)c3c1C(=O)OC3)Oc1ccccc1O2 | 63% | 20% | 20% | 74% | 86% | 120% | 62% | 64% | 66% | 59% | 60% | 88% | 78% | 89% | 69% | 89% | > 10 µM | 6.3 µM | 5% | > 10 µM | inhibition [18]: Dose-dependent effect; IC50 [19]: 1 µM; inhibition [24]: Dose-dependent effect; EC50 [25]: 1.6 µM; inhibition [26]: Dose-dependent effect; EC50 [27]: 1.4 µM; IC50 [28]: 1.8 µM; inhibition [29]: Dose-dependent effect
CCCCCCc1c2c(c(C)c3c1Oc1ccccc1O3)C(=O)OC2 | 49% | -3% | 16% | -9% | 12% |  | 7% | 18% | 2% | 10% | 29% | 11% | 17% | 24% | -7% | 15% |  |  | 26% |  | 
CCc1c2c(nc3ccc(OC(=O)N4CCC(N5CCCCC5)CC4)cc13)-c1cc3c(c(=O)n1C2)COC(=O)[C@]3(O)CC [IRINOTECAN] |  |  |  |  |  |  |  |  |  |  |  |  |  |  |  |  |  |  |  |  | IC50 [30]: 3.96 µM; Ratio IC50 [31]: 1.12; IC50 [32]: 3.55 µM
CCCCCCc1c2c(c(C)c3c1C(=O)SC3)Oc1ccccc1O2 | 7% |  | 13% | -10% | 22% | 90% | 10% | 9% | 18% | -4% | -9% | 20% | 21% | 31% | 30% | 40% | > 10 µM | > 10 µM |  | > 10 µM | IC50 [19]: > 10 µM; EC50 [21]: > 10 µM; EC50 [25]: > 10 µM; EC50 [27]: > 10 µM; IC50 [28]: > 10 µM
CCCCc1c2c(c(C)c3c1Oc1ccccc1O3)C(=O)OC2 | 6% | 39% | 12% |  | 14% | 41% | 7% | 14% | 2% | 0.4% |  | 8% | 34% | 15% | 15% | 38% |  |  |  |  | 
Cc1c2ccncc2c(C)c2c1[nH]c1ccccc12 [ELLIPTECINE] |  |  |  |  |  |  |  |  |  |  |  |  |  |  |  |  |  |  |  |  | IC50 [33]: 0.02 µM; selectivity ratio [34]: 15.6
CCCCCc1c2c(c(C)c3c1Oc1cc(OC)ccc1O3)C(=O)OC2 |  |  |  |  |  | -3.9% |  |  |  |  |  | 23% | 12% | 34% | -7% | 26% | > 10 µM | > 10 µM |  | > 10 µM | EC50 [21]: > 10 µM; EC50 [25]: > 10 µM; EC50 [27]: > 10 µM; IC50 [28]: > 10 µM
Cc1c2c(c(CCCCBr)c3c1C(=O)OC3)Oc1ccccc1O2 | 0.4% | 2% |  |  | 55% | 20% | 9.5% | 4.4% | 28% | 20% | 0.4% | 35% | 17% | 37% | 40% | 108% |  |  | 12% |  | 
CCCCCc1c2c(c(C)c3c1Oc1ccccc1O3)C(=O)OC2 | 17% | -9% | 11% |  | 40% | 40% | 12% | 21% | 31% | 28% |  |  |  |  |  | 35% |  |  | 44% |  | 
CCCCCCc1c2c(c(C)c3c1C(=O)OC3)Oc1ccccc1O2 | 50% | 12% | 21% |  | 86% | 112% | 60% | 58% | 62% | 69% | 14% | 77% | 75% | 86% | 75% | 91% | > 10 µM | 7.6 µM | 52% | > 10 µM | inhibition [18]: Dose-dependent effect; IC50 [19]: 1.8 µM; EC50 [21]: > 20 µM; IC50 [30]: 1.33 µM; inhibition [24]: Dose-dependent effect; EC50 [25]: 2 µM; Ratio IC50 [31]: 0.15; IC50 [33]: 1.52 µM; selectivity ratio [34]: 0.6; IC50 [32]: 8.93 µM; inhibition [26]: Dose-dependent effect; EC50 [27]: > 10 µM; IC50 [28]: 2.1 µM; inhibition [29]: Dose-dependent effect
